Measurements as given in patent publication US20100105680A1, “SUBSTITUTED DIMETHYLCYCLOBUTYL COMPOUNDS, THEIR PREPARATION AND USE IN MEDICAMENTS” (priority 2006, published 2010).

Target: T1, sigma-1 receptor (Cavia porcellus, UniProt Q60492)
T1 construct: guinea pig brains were homogenized; from tissue; host or cells: guinea pig brain membranes
Test: Sigma-1 receptor binding ([3H]-(+)-pentazocine, brain membranes)
Settings: [3H]-(+)-pentazocine 0.5 nM, guinea pig brain membranes; for inhibition at 0.01 µM: compound concentration 0.0100 μM, read-out: Percent Inhibition Percent Concentration (μM) 0.0100 SIGMA-1 receptor; for inhibition at 0.1 µM: compound concentration 0.1000 μM, read-out: Percent Inhibition Percent Concentration (μM) 0.1000 SIGMA-1 receptor
Method: Brain membrane preparation and binding assays for the sigma-1 receptor were performed as described (DeHaven-Hudkins et al., Characterization of the binding of [^3H]-(+)-pentazocine to recognition sites in guinea pig brain, Eur. J. Pharmacol. 227, 371-378) with some modifications.
In brief, guinea pig brains were homogenized in 10 vols. (w/v) of Tris-HCl 50 mM, 0.32 M sucrose, pH 7.4, with a Kinematica Polytron PT 3000 at 15000 r.p.m. for 30 s. The homogenate was centrifuged at 1000 g for 10 min at 4° C. and the supernatants collected and centrifuged again at 48000 g for 15 min at 4° C. The pellet was resuspended in 10 volumes of Tris-HCl buffer (50 mM, pH 7.4), incubated at 37° C. for 30 min, and centrifuged at 48000 g for 20 min at 4° C. Following this, the pellet was resuspended in fresh Tris-HCl buffer (50 mM, pH 7.4) and stored on ice until use.
Each assay tube contained 10 μL of [^3H]-(+)-pentazocine (final concentration of 0.5 nM), 900 μL of the tissue suspension to a final assay volume of 1 mL and a final tissue concentration of approximately 30 mg tissue net weight/mL. Non-specific binding was defined by addition of a final concentration of […] haloperidol. All tubes were incubated at 37° C. for 150 min before termination of the reaction by rapid filtration over Schleicher & Schuell GF 3362 glass fibre filters [previously soaked in a solution of 0.5% polyethylenimine for at least 1 h]. Filters were then washed with four times with 4 mL of cold Tris-HCl buffer (50 mM, pH 7.4). Following addition of scintillation cocktail, the samples were allowed to equilibrate overnight. The amount of bound radioactivity was determined by liquid scintillation spectrometry using a Wallac Winspectral 1414 liquid scintillation counter. Protein concentrations were determined by the method of Lowry et al. (Protein measurement with the Folin phenol reagent, J. Biol. Chem, 193, 265).
The binding of the compounds of the present invention to sigma-1 receptors was tested as described above.

T1 sequence (Q60492 whole entry): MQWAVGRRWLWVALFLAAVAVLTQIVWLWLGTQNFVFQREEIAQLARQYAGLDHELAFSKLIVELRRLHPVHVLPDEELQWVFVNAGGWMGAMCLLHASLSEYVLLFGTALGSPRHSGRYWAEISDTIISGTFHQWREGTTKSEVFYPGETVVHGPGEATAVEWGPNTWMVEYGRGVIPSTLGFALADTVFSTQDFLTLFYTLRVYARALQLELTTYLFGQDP

inhibition at 0.01 µM [%] | inhibition at 0.1 µM [%] | Ki [nM] | SMILES
36.8 | 92 | – | CC1(C)[C@@H](CCN2CCc3ccccc3C2)C[C@H]1CN1CCOCC1 [compound 47]
94.5 | 101 | 0.79 | CC1(C)[C@@H](COCc2ccccc2)C[C@H]1CN1CCCCC1 [compound 7]
